What was measured:
[1] = target: Cytosol aminopeptidase (Sus scrofa) (UniProt P28839); assay: Compound was tested for inhibition of Leucine aminopeptidase isolated from porcine kidney; Inhibitor exhibits slow-binding behavior(k on <=1000Me-1Se-1)
[2] = as above

Cytosol aminopeptidase (Sus scrofa), sequence (P28839 whole entry, looked up): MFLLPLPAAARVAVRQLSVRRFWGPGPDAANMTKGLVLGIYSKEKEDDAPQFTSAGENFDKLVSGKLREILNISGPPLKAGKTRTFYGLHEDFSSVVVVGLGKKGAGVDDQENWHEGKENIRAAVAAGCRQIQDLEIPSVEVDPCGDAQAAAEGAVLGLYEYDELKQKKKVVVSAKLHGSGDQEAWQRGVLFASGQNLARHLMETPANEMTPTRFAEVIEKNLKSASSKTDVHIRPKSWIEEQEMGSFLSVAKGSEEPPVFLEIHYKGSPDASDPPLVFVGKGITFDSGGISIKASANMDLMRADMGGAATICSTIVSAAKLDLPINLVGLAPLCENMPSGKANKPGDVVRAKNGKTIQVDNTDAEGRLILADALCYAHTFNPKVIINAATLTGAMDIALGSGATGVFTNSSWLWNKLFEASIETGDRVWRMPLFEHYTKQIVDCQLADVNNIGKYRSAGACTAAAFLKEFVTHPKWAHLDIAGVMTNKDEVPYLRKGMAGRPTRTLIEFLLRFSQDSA

Row | Structure (SMILES) | Ki [1] [µM] | Ki [2] [µM]
1 | C[C@H](N)P(=O)(O)O [1-Ammonium-ethanephosphonic acid anion] | 240 | 
2 | CCCCCCCC(N)P(=O)(O)O (centres undefined) [1-Ammonium-octane-1-phosphonic acid anion] |  | 0.47
3 | CC(C)CC(N)P(N)(=O)C(=O)N[C@@H](CC(C)C)C(=O)O (stereo partly drawn) [1-[amino({[(1S)-1-carboxylateanion-3-methylbutyl]amino}carbonyl)phosphoryl]-3-methylbutan-1-aminium] | 40 | 
4 | CC(C)C(N)P(=O)(O)O (centres undefined) [1-amino-2-methylpropylphosphonic acid] |  | 1.2
5 | CCCCCC(N)P(=O)(O)O (centres undefined) [1-aminohexylphosphonic acid] | 1 | 
6 | CCC(N)P(=O)(O)O (centres undefined) [1-aminopropylphosphonic acid] |  | 3.6
7 | COP(=O)(C(=O)N[C@@H](CC(C)C)C(=O)O)C(N)CC(C)C (stereo partly drawn) [2-(1-Ammonium-3-methylbutylmethoxyphosphorylcarbonylamino)-4-methyl-(2S)-pentanoate] | 1650 | 
8 | CC(C)CCN [3-Methyl-butylamine] | > 50000 | 
9 | COP(=O)(O)C(N)Cc1ccccc1 (centres undefined) [(1-Ammonium-2-phenyl-ethyl)-phosphonic acid monomethyl ester] | 43 | 
10 | COP(=O)(O)C(N)CC(C)C (centres undefined) [(1-Ammonium-3-methyl-butyl)-phosphonic acid monomethyl ester] | 320 | 
11 | CC(C)CCP(=O)(O)O [(3-Methyl-butyl)-phosphonic acid] | 775 | 
12 | N[C@H](Cc1ccccc1)P(=O)(O)O [(S)-1-Ammonium-2-phenyl-ethanephosphonic acid anion] | 15.4 | 
13 | NCP(=O)(O)O [Ammonium-methanephosphonic acid anion] | 1040 | 
14 | N[C@@H](Cc1ccccc1)P(=O)(O)O [[(1R)-1-amino-2-phenylethyl]phosphonic acid] | 0.42 | 
